Test results: patent publication US4738970A, “Benzimidazolyl-thio-tetrahydroquinolines and anti-peptic ulcer compositions containing the same” (Otsuka Pharmaceutical Co., Ltd., priority 1984, dated 1988)

Tests used:
[1] = tested on: secretion of hydrochloric acid in the stomach; experiment: Inhibitory Effect Test for the Secretion of Hydrochloric Acid in the Stomach; assay type: in vivo, Wistar strain male rats; conditions: Rattus norvegicus; Wistar male rats, pylorus ligated, histamine dihydrochloride 1 mg/kg/hour stimulated; injected into the duodenum; probit analysis; read-out: ED50 (inhibition of the secretion of hydrochloric acid)
Procedure: Wistar strain male rats were used as test animals. The test animals were abstained from food for 24 hours, then the pyloric sphincter of the test animal was ligated under anesthetized condition with urethane (1.5 g/kg), and a perfusion cannula for the stomach was inserted into the stomach.
The stomach was perfused with physiological saline through a peroral catheter, and the quantity of gastric juice secreted was measured by determining the pH and by titrating the total acidity of the perfusate.
The secretion of gastric juice was accelerated by injecting histamine dihydrochloride as the secretion stimulant in the rate of 1 mg/kg/hour continuously through the femoral vein, then the effect of each of the compounds was tested. Each of the test compounds was dissolved in dimethylformamide, and the predetermined dosage (maximum: 30 mg/kg) of each of the test compounds was administered by injecting the test compound solution into the duodenum.
Inhibition rate (%) of the secretion of hydrochloric acid was calculated by taking the value of the hydrochloric acid secreted before the administration of each of the test compounds as the reference. ED50 value of each of the test compounds was calculated from the inhibitory rate (%) of each of the test compounds and treated mathematically by probit (probability unit) analysis.

H^+ -K^+ -ATPase = target: T1, H^+ -K^+ -ATPase (Sus scrofa, UniProt P19156); experiment: Inhibitory Effect Test for the Activity of H^+ -K^+ -ATPase; assay type: biochemical; conditions: H+-K+-ATPase from the stomach of swine; preincubation pH 6.1, room temperature 30 min; reaction pH 7.4, 37° C. 30 min; read-out: IC50 (50% inhibition dosage)
T1 construct: which was prepared from the stomach of swine; from tissue; host or cells: stomach of swine
T1 sequence (P19156 2-1034 limits assumed): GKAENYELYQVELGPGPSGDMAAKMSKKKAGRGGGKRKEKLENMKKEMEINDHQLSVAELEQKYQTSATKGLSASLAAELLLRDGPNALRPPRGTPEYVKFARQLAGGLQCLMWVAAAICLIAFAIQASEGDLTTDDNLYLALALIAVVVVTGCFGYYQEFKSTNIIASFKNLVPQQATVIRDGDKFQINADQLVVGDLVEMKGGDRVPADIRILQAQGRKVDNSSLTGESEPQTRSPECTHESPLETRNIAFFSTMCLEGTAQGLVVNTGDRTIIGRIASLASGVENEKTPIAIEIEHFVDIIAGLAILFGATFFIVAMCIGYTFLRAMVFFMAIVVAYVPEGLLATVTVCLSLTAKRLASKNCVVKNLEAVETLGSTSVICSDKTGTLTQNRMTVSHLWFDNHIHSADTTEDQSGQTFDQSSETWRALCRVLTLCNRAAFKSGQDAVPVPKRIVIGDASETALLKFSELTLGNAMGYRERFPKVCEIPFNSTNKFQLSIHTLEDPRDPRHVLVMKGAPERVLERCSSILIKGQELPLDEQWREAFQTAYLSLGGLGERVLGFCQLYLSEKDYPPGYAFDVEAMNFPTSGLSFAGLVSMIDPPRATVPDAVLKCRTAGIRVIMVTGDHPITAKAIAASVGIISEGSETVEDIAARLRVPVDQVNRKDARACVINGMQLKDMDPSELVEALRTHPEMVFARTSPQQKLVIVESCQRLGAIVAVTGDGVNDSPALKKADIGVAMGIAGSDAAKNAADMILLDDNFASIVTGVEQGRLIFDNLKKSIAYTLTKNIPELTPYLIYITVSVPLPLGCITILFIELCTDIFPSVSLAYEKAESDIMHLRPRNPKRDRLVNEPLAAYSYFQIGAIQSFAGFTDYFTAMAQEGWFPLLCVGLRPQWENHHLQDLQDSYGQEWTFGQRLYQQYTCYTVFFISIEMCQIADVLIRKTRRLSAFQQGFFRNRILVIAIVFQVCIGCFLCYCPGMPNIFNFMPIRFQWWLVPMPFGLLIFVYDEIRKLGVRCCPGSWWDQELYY
T1 sequence (P18434 whole entry partner): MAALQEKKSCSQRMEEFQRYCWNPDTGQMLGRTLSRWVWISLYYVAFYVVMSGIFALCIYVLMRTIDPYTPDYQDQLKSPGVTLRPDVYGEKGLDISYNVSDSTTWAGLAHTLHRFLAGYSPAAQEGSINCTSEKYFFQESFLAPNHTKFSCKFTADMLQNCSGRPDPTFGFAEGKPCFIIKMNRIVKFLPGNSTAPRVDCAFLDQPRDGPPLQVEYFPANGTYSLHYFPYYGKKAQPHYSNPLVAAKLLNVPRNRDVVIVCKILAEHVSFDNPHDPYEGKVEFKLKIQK
Procedure: H^+ -K^+ -ATPase (hydrogen-potassium-activated adenosine triphosphatase) (protein content: 10 mcg) which was prepared from the stomach of swine was added to PIPES-tris[buffer PIPES-tris(hydroxymethyl)-2-amino-1,3-propanediol buffer (pH=6.1) containing 2 mM of piperazine-N,N'-bis(2-ethanesulfonic acid)], then the resulting mixture was let allowed to stand at room temperature.
Each of the test compounds was dissolved in dimethylformamide, and the dimethylformamide solution was added to the above-mentioned H^+ -K^+ -ATPase buffer solution so as to adjust the final concentration of the test compound to 1.0%. Each of thus prepared mixture was reacted at room temperature for 30 minutes.
Next, the above-mentioned reaction mixture was divided into two portions, and to the one portion thereof was added 1 ml of 75 mM PIPES-tris buffer solution (pH=7.4) (containing 4 mM of MgCl2, 4 mM of Na2 ATP and 20 mM of KCl), on the other hand, to another portion of the reaction mixture was added 1 ml of 75 mM PIPES-tris buffer solution (pH=7.4) (containing 4 mM of MgCl2 and 4 mM of Na2 ATP), respectively. Each of these two series of sample solutions was separately reacted at 37° C. for 30 minutes. Then to each of these reaction mixtures was added 0.3 ml of 40% trichloroacetic acid to terminate the reaction, and was subjected to centrifugal separation at 3,000 rpm for 10 minutes to obtain the supernatent. Next, the inorganic phosphoric acid formed in the reaction mixture was determined by a method according to the article by C. H. Fiske and Y. Subbarow: J. Biol. Chem., Vol. 66, pages 375-400, (1925). The difference of the value obtained by substracting the quantity of inorganic phosphoric acid determined by using PIPES-tris buffer solution without containing 20 mM of KCl from the quantity of inorganic phosphoric acid determined by using PIPES-tris buffer solution containing 20 mM of KCl, was converted into as activity value of enzyme with respect to the unit protein and unit time.
Inhibitory rate (%) of each of the test compounds was obtained from the activity value of the enzyme at the respective dosages in the test groups and those of obtained from the control group, then IC50 (50% inhibition dosage of each of the test compounds) was calculated from the inhibitory rate (%).

Row | IC50 (H^+ -K^+ -ATPase) [nM] | SMILES | ED50 [1] [mg/kg]
1 | 1200 | [O-][S+](c1nc2ccccc2[nH]1)C1CCCc2cccnc21 (centres unmarked) [Test compound 12, 8-(2-Benzimidazolyl)sulfinyl-5,6,7,8-tetrahydroquinoline] | 8.5
2 | 1900 | Cc1ccc2nc([S+]([O-])C3CCCc4cccnc43)[nH]c2c1 (centres unmarked) [Test compound 17, 8-(5-Methyl-2-benzimidazolyl)sulfinyl-5,6,7,8-tetrahydroquinoline] | 17.2
3 | 1000 | [O-][S+](c1nc2ccc(Cl)cc2[nH]1)C1CCCc2cccnc21 (centres unmarked) [Test compound 20, 8-(5-Chloro-2-benzimidazolyl)sulfinyl-5,6,7,8-tetrahydroquinoline] | 4.4
4 | 3700 | COc1ccc2nc([S+]([O-])C3CCCc4cc(C)cnc43)[nH]c2c1 (centres unmarked) [Test compound 26, 3-Methyl-8-(5-methoxy-2-benzimidazolyl)-sulfinyl-5,6,7,8-tetrahydroquinoline] | 15.7
5 | 1700 | [O-][S+](c1nc2ccc(F)cc2[nH]1)C1CCCc2cccnc21 (centres unmarked) [Test compound 32, 8-(5-Fluoro-2-benzimidazolyl)sulfinyl-5,6,7,8-tetrahydroquinoline] | 5.2
6 | 1900 | Cc1cnc2c(c1)CCCC2[S+]([O-])c1nc2ccc(F)cc2[nH]1 (centres unmarked) [Test compound 40, 3-Methyl-8-(5-fluoro-2-benzimidazolyl)-sulfinyl-5,6,7,8-tetrahydroquinoline] | –
7 | 99 | COc1c(C)cnc2c1CCCC2[S+]([O-])c1nc2cc(Cl)c(Cl)cc2[nH]1 (centres unmarked) [Test compound 41, 3-Methyl-4-methoxy-8-(5,6-dichloro-2-benzimidazolyl)sulfinyl-5,6,7,8-tetrahydroquinoline] | –
8 | 240 | CCOc1cc2[nH]c([S+]([O-])C3CCCc4c3ncc(C)c4OC)nc2cc1F (centres unmarked) [Test compound 42, 3-Methyl-4-methoxy-8-(5-ethoxy-6-fluoro-2-benzimidazolyl)sulfinyl-5,6,7,8-tetrahydroquinoline] | –
9 | 280 | COc1c(C)cnc2c1CCCC2[S+]([O-])c1nc2cc(F)c(F)cc2[nH]1 (centres unmarked) [Test compound 43, 3-Methyl-4-methoxy-8-(5,6-difluoro-2-benzimidazolyl)sulfinyl-5,6,7,8-tetrahydroquinoline] | –
10 | 2340 | COc1c(C)cnc(C[S+]([O-])c2nc3nc(Br)ccc3[nH]2)c1C (centres unmarked) [Test compound 45, 5-Bromo-2-[(3,5-dimethyl-4-methoxy-2-pyridyl)methylsulfinyl]imidazo[4,5-b]pyridine] | –
11 | 29200 | COc1c(C)cnc(C[S+]([O-])c2nc3cnccc3[nH]2)c1C (centres unmarked) [Test compound 46, 2-[(3,5-Dimethyl-4-methoxy-2-pyridyl)-methylsulfinyl]imidazo[4,5-c]pyridine] | –
12 | > 100000 | c1ccc(CSc2nc3ncccc3[nH]2)nc1 [Test compound 47, 2-(2-Pyridylmethylthio)imidazo[4,5-b]pyridine, reference compound] | –
13 | 310 | COc1cc2nc([S+]([O-])C3CCCc4c3ncc(C)c4OC)[nH]c2cc1F (centres unmarked) [Test compound 48, 3-Methyl-4-methoxy-8-(5-fluoro-6-methoxy-2-benzimidazolyl)sulfinyl-5,6,7,8-tetrahydroquinoline] | –
14 | 280 | COc1ccc2nc([S+]([O-])C3CCCc4c3ncc(C)c4OC)[nH]c2c1 (centres unmarked) [Test compound 49, 3-Methyl-4-methoxy-8-(5-methoxy-2-benzimidazolyl)sulfinyl-5,6,7,8-tetrahydroquinoline] | –
15 | 180 | COc1c(C)cnc2c1CCCC2[S+]([O-])c1nc2ccc(Cl)cc2[nH]1 (centres unmarked) [Test compound 50, 3-Methyl-4-methoxy-8-(5-chloro-2-benzimidazolyl)sulfinyl-5,6,7,8-tetrahydroquinoline] | –
16 | 99 | COc1ccnc2c1CCCC2[S+]([O-])c1nc2ccc(F)cc2[nH]1 (centres unmarked) [Test compound 51, 4-Methoxy-8-(5-fluoro-2-benzimidazolyl)-sulfinyl-5,6,7,8-tetrahydroquinoline] | –
17 | 230 | Cc1cnc2c(c1)CCCC2[S+]([O-])c1nc2cc(Cl)c(Cl)cc2[nH]1 (centres unmarked) [Test compound 52, 3-Methyl-8-(5,6-dichloro-2-benzimidazolyl)-sulfinyl-5,6,7,8-tetrahydroquinoline] | –
18 | 580 | Cc1cnc2c(c1)CCCC2[S+]([O-])c1nc2cc(C)c(C)cc2[nH]1 (centres unmarked) [Test compound 53, 3-Methyl-8-(5,6-dimethyl-2-benzimidazolyl)-sulfinyl-5,6,7,8-tetrahydroquinoline] | –
